Measurements from patent US20200148646A1, “6-S[…] 7-S[…] ANALOGS AND THE USE THEREOF” (Purdue Pharma, L.P., priority 2013, published 2020).

How the values were obtained:
[1] = biological target: T1, μ-opioid receptor (Homo sapiens, UniProt P35372); test: μ-opioid receptor [35S]GTPγS functional assay, U-2 OS cells; type: biochemical; design: host or cells: U-2 OS cells; settings: for Emax: U2-OS cells, relative to DAMGO
In short: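 U-2 OS membranes expressing recombinant human μ-receptor (0.026 mg/mL) were incubated with compound, […], saponin and [35S]GTPγS 0.20 nM in HEPES/NaCl/MgCl2 buffer pH 7.4 for 30 min at about 25° C. Filter-bound radioactivity gave sigmoidal fits for EC50; Emax is relative to DAMGO.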

[2] = biological target: T2, human κ opioid receptor (Homo sapiens, UniProt P41145); test: κ-opioid receptor [35S]GTPγS functional assay, HEK-293 or CHO cells; type: biochemical; design: expressed in transfected cells; settings: for Emax: HEK-293 or CHO cells, relative to U69,593
Experimental: Membranes from recombinant HEK-293 cells, CHO or U-2 OS cells expressing the recombinant human K opioid receptor (K) were prepared by lysing cells in ice cold hypotonic buffer (2.5 mM MgCl2, 50 mM HEPES, pH 7.4) (10 mL/10 cm dish) followed by homogenization with a tissue grinder/Teflon pestle. Functional [^35S]GTPγS binding assays were conducted as follows. K opioid receptor membrane solution was prepared by sequentially adding final concentrations of 0.026 μg/μl κ membrane protein (in-house), 10 μg/mL saponin, 3 μM GDP and 0.20 nM [^35S]GTPγS to binding buffer (100 mM NaCl, 10 mM MgCl2, 20 mM HEPES, pH 7.4) on ice. The prepared membrane solution (190 μl/well) was transferred to 96-shallow well polypropylene plates containing 10 μl of 20× concentrated stock solutions of agonist prepared in DMSO. Plates were incubated for 30 min at a temperature of about 25° C. with shaking. Reactions were terminated by rapid filtration onto 96-well Unifilter GF/B filter plates (Perkin Elmer, Shelton, Conn.) using a 96-well tissue harvester (Packard) and followed by three filtration washes with 200 μl ice-cold binding buffer (10 mM NaH2PO4, 10 mM Na2HPO4, pH 7.4). Filter plates were subsequently dried at 50° C. for 2-3 hours. Fifty μl/well scintillation cocktail (Perkin Elmer, Shelton, Conn.) was added and plates were counted in a Packard Top-Count for 1 min/well.
κ GTP EC50 is the concentration of a compound providing 50% of the maximal response for the compound at a κ receptor.
κ GTP Emax (%) is the maximal effect elicited by a compound relative to the effect elicited by U69,593.
In TABLE 2, activity response of certain Compounds of the Invention at the μ- and κ-opioid receptors using HEK-293 or CHO cells was determined as described above for functional assays.

[3] = biological target: T2, human κ opioid receptor; test: κ-opioid receptor radioligand ([3H]-U69,593) dose-displacement binding assay, HEK-293 or CHO cells; design: expressed in transfected cells; host or cells: HEK-293 cells (in-house prep)
Experimental: Membranes from recombinant HEK-293 cells expressing the human K opioid receptor (cloned in house) were prepared by lysing cells in ice cold hypotonic buffer (2.5 mM MgCl2, 50 mM HEPES, pH 7.4) (10 mL/10 cm dish) followed by homogenization with a tissue grinder/Teflon pestle. Membranes were collected by centrifugation at 30,000×g for 15 min at 4° C. and pellets were resuspended in hypotonic buffer to a final concentration of 1-3 mg/mL. Protein concentrations were determined using the BioRad protein assay reagent with bovine serum albumen as standard. Aliquots of κ receptor membranes were stored at −80° C.
Radioligand dose displacement assays used 0.4 nM [^3H]-U69,593 (GE Healthcare, Piscataway, N.J.; 40 Ci/mmole) with 15 μg membrane protein (recombinant K opioid receptor expressed in HEK 293 cells; in-house prep) in a final volume of 200 μl binding buffer (5% DMSO, 50 mM Trizma base, pH 7.4). Non-specific binding was determined in the presence of 10 μM unlabeled naloxone or U69,593. All reactions were performed in 96-well polypropylene plates for 1 hr at a temperature of about 25° C. Binding reactions were terminated by rapid filtration onto 96-well Unifilter GF/C filter plates (Perkin Elmer, Shelton, Conn.) presoaked in 0.5% polyethylenimine (Sigma). Harvesting was performed using a 96-well tissue harvester (Perkin Elmer, Shelton, Conn.) followed by five filtration washes with 200 μl ice-cold binding buffer. Filter plates were subsequently dried at 50° C. for 1-2 hours. Fifty μl/well scintillation cocktail (Perkin Elmer, Shelton, Conn.) was added and plates were counted in a Packard Top-Count for 1 min/well.
(§1) In TABLE 1, binding affinity of certain Compounds of the Invention to the μ-, and κ-opioid receptors in HEK-293 or CHO cells was determined as described above.

[4] = biological target: T1, μ-opioid receptor; test: μ-opioid receptor radioligand ([3H]-diprenorphine) dose-displacement binding assay, HEK-293 or CHO cells
Experimental: Radioligand dose-displacement binding assays for μ-opioid receptors used 0.3 nM [^3H]-diprenorphine (Perkin Elmer, Shelton, Conn.), with […] membrane protein/well in a final volume of 500 μl binding buffer (10 mM MgCl2, 1 mM EDTA, 5% DMSO, 50 mM HEPES, pH 7.4). Reactions were carried out in the absence or presence of increasing concentrations of unlabeled naloxone. All reactions were conducted in 96-deep well polypropylene plates for 2 hr at room temperature. Binding reactions were terminated by rapid filtration onto 96-well Unifilter GF/C filter plates (Perkin Elmer, Shelton, Conn.), presoaked in 0.5% polyethylenimine using a 96-well tissue harvester (Perkin Elmer, Shelton, Conn.) followed by performing three filtration washes with 500 μl of ice-cold binding buffer. Filter plates were subsequently dried at 50° C. for 2-3 hours. BetaScint scintillation cocktail (Perkin Elmer, Shelton, Conn.) was added (50 l/well), and plates were counted using a Packard Top-Count for 1 min/well. The data were analyzed using the one-site competition curve fitting functions in GraphPad PRISM™ v. 3.0 or higher (San Diego, Calif.), or an in-house function for one-site competition curve-fitting.
as §1

[5] = biological target: T1, μ-opioid receptor; test: μ-opioid receptor [35S]GTPγS functional assay, HEK-293 or CHO cells; type: biochemical; settings: for Emax: HEK-293 or CHO cells, relative to DAMGO
In short: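 Agonist-stimulated [35S]GTPγS binding to recombinant μ-receptor membranes (HEK-293 or CHO) with 0.20 nM [35S]GTPγS, […] and saponin, pH 7.4, 30 min at about 25 °C, then filtration and scintillation counting. EC50 from sigmoidal fits; Emax relative to DAMGO.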

[6] = biological target: T2, human κ opioid receptor; test: κ-opioid receptor [35S]GTPγS functional assay, U-2 OS cells; type: biochemical; design: expressed in transfected cells; host or cells: U-2 OS cells (in-house membranes); settings: for Emax: U2-OS cells, relative to U69,593
In short: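 Membranes from U-2 OS cells expressing human κ receptor (0.026 μg/μl protein) were incubated with agonist, 10 μg/mL saponin, 3 μM GDP and 0.20 nM [35S]GTPγS in pH 7.4 HEPES buffer for 30 min at about 25 °C. Bound radioactivity was measured after filtration. EC50 was taken at half-maximal response; Emax is relative to U69,593.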

T2 sequence (P41145 whole entry): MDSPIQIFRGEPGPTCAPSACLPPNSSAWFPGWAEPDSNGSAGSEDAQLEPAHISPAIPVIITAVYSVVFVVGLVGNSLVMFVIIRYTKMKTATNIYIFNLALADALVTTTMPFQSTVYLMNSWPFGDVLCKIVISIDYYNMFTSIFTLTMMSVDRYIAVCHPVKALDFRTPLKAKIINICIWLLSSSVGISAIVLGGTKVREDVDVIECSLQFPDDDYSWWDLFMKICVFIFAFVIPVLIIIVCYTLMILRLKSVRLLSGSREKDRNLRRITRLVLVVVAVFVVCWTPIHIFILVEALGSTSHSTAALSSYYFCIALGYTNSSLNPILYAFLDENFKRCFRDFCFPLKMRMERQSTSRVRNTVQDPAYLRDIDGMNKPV
T1 sequence (P35372 whole entry, species assumed): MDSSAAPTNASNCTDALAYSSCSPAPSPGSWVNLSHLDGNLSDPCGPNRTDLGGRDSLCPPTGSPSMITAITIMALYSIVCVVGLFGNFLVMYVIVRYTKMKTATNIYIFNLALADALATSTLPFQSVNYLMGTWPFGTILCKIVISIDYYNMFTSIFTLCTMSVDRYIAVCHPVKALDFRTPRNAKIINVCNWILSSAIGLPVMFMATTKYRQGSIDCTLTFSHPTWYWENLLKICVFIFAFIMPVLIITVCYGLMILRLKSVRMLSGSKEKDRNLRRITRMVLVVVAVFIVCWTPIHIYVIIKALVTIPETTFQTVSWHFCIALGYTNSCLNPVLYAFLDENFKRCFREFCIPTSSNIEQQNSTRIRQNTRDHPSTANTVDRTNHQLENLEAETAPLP

COc1ccc2c(c1)[C@]13CCN(CC4CC4)[C@H](C2)[C@]1(O)CC[C@@H](CC(=O)O)C3 [Compound 9, 2-((4bS,6R,8aS,9R)-11-(cyclopropylmethyl)-8a-hydroxy-3-methoxy-6,7,8,8a,9,10-hexahydro-5H-9,4b-(epiminoethano)phenanthren-6-yl)acetic acid]
EC50 [1]: 574 ± 87.2 nM | Emax [1]: 36.3 ± 0.88% | EC50 [2]: 597 ± 163 nM | Ki [3]: 597 ± 163 nM

N=C(N)NCCN[C@@H]1CC[C@@]2(O)[C@H]3Cc4ccc(O)cc4[C@@]2(CCN3CC2CC2)C1 [Compound 12, 1-(2-(((4bR,6R,8aS,9R)-11-(cyclopropylmethyl)-3,8a-dihydroxy-6,7,8,8a,9,10-hexahydro-5H-9,4b-(epiminoethano)phenanthren-6-yl)amino)ethyl)guanidine]
Ki [4]: 53.2 ± 8.9 nM | EC50 [5]: > 20000 nM | Emax [5]: 5.33 ± 0.88% | EC50 [1]: 32.7 ± 2.82 nM | Emax [1]: 64.7 ± 5.17% | Ki [3]: 0.29 ± 0.13 nM | EC50 [6]: 5.06 ± 0.29 nM | Emax [6]: 105 ± 1.76%

NCCCCN[C@@H]1CC[C@@]2(O)[C@H]3Cc4ccc(O)cc4[C@@]2(CCN3CC2CC2)C1 [Compound 14, (4bR,6R,8aS,9R)-6-((4-aminobutyl)amino)-11-(cyclopropylmethyl)-5,6,7,8,9,10-hexahydro-8aH-9,4b-(epiminoethano)phenanthrene-3,8a-diol]
Ki [4]: 124 ± 43.5 nM | EC50 [5]: > 20000 nM | Emax [5]: 8.67 ± 2.96% | EC50 [1]: 85.6 ± 3.31 nM | Emax [1]: 74.3 ± 2.19% | Ki [3]: 0.56 ± 0.052 nM | EC50 [6]: 5.47 ± 0.3 nM | Emax [6]: 112 ± 5.13%

N=C(N)NCCCN[C@@H]1CC[C@@]2(O)[C@H]3Cc4ccc(O)cc4[C@@]2(CCN3CC2CC2)C1 [Compound 15, 1-(3-(((4bR,6R,8aS,9R)-11-(cyclopropylmethyl)-3,8a-dihydroxy-6,7,8,8a,9,10-hexahydro-5H-9,4b-(epiminoethano)phenanthren-6-yl)amino)propyl)guanidine]
Ki [4]: 54.1 ± 10.1 nM | EC50 [5]: 1110 ± 447 nM | Emax [5]: 11.3 ± 0.33% | EC50 [1]: 41.5 ± 8.55 nM | Emax [1]: 76.3 ± 3.38% | Ki [3]: 0.53 ± 0.13 nM | EC50 [6]: 12.8 ± 1.3 nM | Emax [6]: 108 ± 2.65%

N=C(N)NCCCCN[C@@H]1CC[C@@]2(O)[C@H]3Cc4ccc(O)cc4[C@@]2(CCN3CC2CC2)C1 [Compound 16, 1-(4-(((4bR,6R,8aS,9R)-11-(cyclopropylmethyl)-3,8a-dihydroxy-6,7,8,8a,9,10-hexahydro-5H-9,4b-(epiminoethano)phenanthren-6-yl)amino)butyl)guanidine]
Ki [4]: 70.5 ± 13.8 nM | EC50 [5]: 811 ± 442 nM | Emax [5]: 9 ± 0.58% | EC50 [1]: 53.7 ± 11.5 nM | Emax [1]: 78 ± 3.61% | Ki [3]: 0.48 ± 0.055 nM | EC50 [6]: 15 ± 1.15 nM | Emax [6]: 105 ± 2.89%

N=C(N)NCC(=O)N[C@@H]1CC[C@@]2(O)[C@H]3Cc4ccc(O)cc4[C@@]2(CCN3CC2CC2)C1 [Compound 20, N-((4bR,6R,8aS,9R)-11-(cyclopropylmethyl)-3,8a-dihydroxy-6,7,8,8a,9,10-hexahydro-5H-9,4b-(epiminoethano)phenanthren-6-yl)-2-guanidinoacetamide]
Ki [4]: 449 ± 53.5 nM | EC50 [5]: > 20000 nM | Emax [5]: 7.33 ± 0.88% | EC50 [1]: 394 ± 57.8 nM | Emax [1]: 62.7 ± 4.26% | Ki [3]: 3.23 ± 0.7 nM | EC50 [6]: 62.3 ± 2.37 nM | Emax [6]: 111 ± 2.4%

N=C(N)NCCCC(=O)N[C@@H]1CC[C@@]2(O)[C@H]3Cc4ccc(O)cc4[C@@]2(CCN3CC2CC2)C1 [Compound 22, N-((4bR,6R,8aS,9R)-11-(cyclopropylmethyl)-3,8a-dihydroxy-6,7,8,8a,9,10-hexahydro-5H-9,4b-(epiminoethano)phenanthren-6-yl)-4-guanidinobutanamide]
Ki [4]: 251 ± 29.4 nM | EC50 [5]: > 20000 nM | Emax [5]: 5 ± 1.53% | EC50 [1]: 247 ± 25.5 nM | Emax [1]: 60 ± 5.51% | Ki [3]: 1.85 ± 0.22 nM | EC50 [6]: 27.1 ± 4.18 nM | Emax [6]: 107 ± 2.33%

N=C(N)Nc1ccc(N[C@@H]2CC[C@@]3(O)[C@H]4Cc5ccc(O)cc5[C@@]3(CCN4CC3CC3)C2)cc1 [Compound 24, 1-(4-(((4bR,6R,8aS,9R)-11-(cyclopropylmethyl)-3,8a-dihydroxy-6,7,8,8a,9,10-hexahydro-5H-9,4b-(epiminoethano)phenanthren-6-yl)amino)phenyl)guanidine]
Ki [4]: 8.42 ± 2.88 nM | EC50 [5]: > 20000 nM | Emax [5]: 4.33 ± 1.45% | EC50 [1]: 8.14 ± 0.94 nM | Emax [1]: 55.3 ± 2.91% | Ki [3]: 0.24 ± 0.021 nM | EC50 [6]: 2.91 ± 0.18 nM | Emax [6]: 104 ± 4.04%

CC(C)CN[C@@H]1C[C@@]2(O)[C@H]3Cc4ccc(O)cc4[C@@]2(CCN3CC2CC2)C[C@@H]1O [Compound 34, (4bR,6S,7R,8aS,9R)-11-(cyclopropylmethyl)-7-(isobutylamino)-5,6,7,8,9,10-hexahydro-8aH-9,4b-(epiminoethano)phenanthrene-3,6,8a-triol]
EC50 [5]: > 20000 nM | Emax [5]: 1% | EC50 [1]: 3.84 ± 1.53 nM | Emax [1]: 20.3 ± 1.76% | EC50 [2]: 0.55 ± 0.23 nM | Emax [2]: 32 ± 1.35% | EC50 [6]: 0.81 ± 0.12 nM | Emax [6]: 71 ± 1.53%

CC(C)C(=O)N[C@H]1C[C@@]2(O)[C@H]3Cc4ccc(O)cc4[C@@]2(CCN3CC2CC2)CC1O (stereo partly drawn) [Compound 50, N-((4bR,7S,8aS,9R)-11-(cyclopropylmethyl)-3,6,8a-trihydroxy-6,7,8,8a,9,10-hexahydro-5H-9,4b-(epiminoethano)phenanthren-7-yl)isobutyramide]
EC50 [5]: > 20000 nM | Emax [5]: 1% | EC50 [1]: 113 ± 60.8 nM | Emax [1]: 12.8 ± 0.85% | EC50 [2]: 29.2 ± 2.21 nM | Emax [2]: 45.7 ± 2.19% | EC50 [6]: 47.3 ± 3.7 nM | Emax [6]: 91.7 ± 1.33%
